# Assay results published in ChEMBL document CHEMBL5244281, “Tackling multidrug-resistant Staphylococcus aureus by natural products and their analogues acting as NorA efflux pump inhibitors” (Bioorg Med Chem, 2023).
# Columns and labels:
# LS180 = experiment: Cytotoxicity against human LS180 cells; type: functional, cell-based
# [1] = biological target: ATP-dependent translocase ABCB1 (Homo sapiens, UniProt P08183); experiment: Inhibition of P-gp mediated efflux in human LS180 cells using digoxin as substrate incubated for 90 mins by fluorescence assay; type: cell-based
# Staphylococcus aureus [2] = experiment: Antibacterial activity against wild type Staphylococcus aureus 1199 assessed as bacterial growth inhibition incubated for 24 hrs by microdilution method; type: functional
# Staphylococcus aureus [3] = experiment: Antibacterial activity against Staphylococcus aureus 1199B overexpressing NorA efflux protein assessed as bacterial growth inhibition incubated for 24 hrs by microdilution method; type: functional
# Staphylococcus aureus [4] = experiment: Antibacterial activity against Staphylococcus aureus 1199B overexpressing NorA efflux protein assessed as bacterial growth inhibition; type: functional
# Staphylococcus aureus [5] = experiment: Antibacterial activity against Staphylococcus aureus K1758 with NorA deletion mutant assessed as bacterial growth inhibition; type: functional
# Staphylococcus aureus [6] = experiment: Synergistic antibacterial activity against Staphylococcus aureus 1199B overexpressing NorA efflux protein assessed as fractional inhibitory concentration index in presence of norfloxacin by checkerboard assay; type: functional
# Staphylococcus aureus [7] = experiment: Synergistic antibacterial activity against Staphylococcus aureus 1199B overexpressing NorA efflux protein assessed as fractional inhibitory concentration index in presence of ciprofloxacin by checkerboard assay; type: functional
# Staphylococcus aureus [8] = experiment: Synergistic antibacterial activity against Staphylococcus aureus 1199B overexpressing NorA efflux protein assessed as fractional inhibitory concentration index in presence of moxifloxacin by checkerboard assay; type: functional
# Staphylococcus aureus [9] = experiment: Synergistic antibacterial activity against Staphylococcus aureus 1199B overexpressing NorA efflux protein assessed as fractional inhibitory concentration index in presence of chloramphenicol by checkerboard assay; type: functional
# Staphylococcus aureus [10] = experiment: Antibacterial activity against Staphylococcus aureus RN4220 expressing MsrA efflux protein assessed as bacterial growth inhibition incubated for 24 hrs by resazurin based microdilution assay; type: functional
# Staphylococcus aureus [11] = experiment: Antibacterial activity against Staphylococcus aureus IS-58 expressing TetK efflux protein assessed as bacterial growth inhibition incubated for 24 hrs by resazurin based microdilution assay; type: functional
# Staphylococcus aureus [12] = experiment: Antibacterial activity against Staphylococcus aureus 1199B expressing NorA efflux protein assessed as bacterial growth inhibition incubated for 24 hrs by resazurin based microdilution assay; type: functional
# Staphylococcus aureus [13] = experiment: Antibacterial activity against wild type Staphylococcus aureus 1199 assessed as bacterial growth inhibition incubated for 24 hrs by resazurin based microdilution assay; type: functional
# Staphylococcus aureus [14] = experiment: Synergistic antibacterial activity against methicillin-susceptible Staphylococcus aureus 1199B overexpressing NorA efflux pump assessed as reduction in norfloxacin MIC at 64 ug/ml incubated for 18 to 24 hrs in presence of norfloxacin by MTT assay; type: functional; settings: dose 64 µg/ml, time 18-24 hrs
# Staphylococcus aureus [15] = experiment: Synergistic antibacterial activity against methicillin-susceptible Staphylococcus aureus 1199B overexpressing NorA efflux pump assessed as fractional inhibitory concentration index at 64 ug/ml incubated for 18 to 24 hrs in presence of norfloxacin by checkerboard microdilution assay; type: functional; settings: dose 64 µg/ml; time 18-24 hrs
# Staphylococcus aureus [16] = experiment: Antibacterial activity against fluoroquinolone-resistant Staphylococcus aureus 1199B overexpressing NorA gene assessed as bacterial growth inhibition by microdilution method; type: functional
# [17] = biological target: Quinolone resistance protein NorA (Staphylococcus aureus, UniProt P0A0J7); experiment: Inhibition of NorA efflux pump in Staphylococcus aureus 1199B overexpressing NorA gene assessed as reduction in EtBr efflux inhibition by spectrofluorometric assay
# [18] = biological target: T1, Quinolone resistance protein NorA (Staphylococcus aureus) (UniProt P0A0J7); experiment: Inhibition of NorA efflux pump in Staphylococcus aureus 1199B overexpressing NorA gene assessed as efflux inhibition at 2 mg/L by Hoechst 33342 staining based fluorescence assay
# T1 sequence (whole entry): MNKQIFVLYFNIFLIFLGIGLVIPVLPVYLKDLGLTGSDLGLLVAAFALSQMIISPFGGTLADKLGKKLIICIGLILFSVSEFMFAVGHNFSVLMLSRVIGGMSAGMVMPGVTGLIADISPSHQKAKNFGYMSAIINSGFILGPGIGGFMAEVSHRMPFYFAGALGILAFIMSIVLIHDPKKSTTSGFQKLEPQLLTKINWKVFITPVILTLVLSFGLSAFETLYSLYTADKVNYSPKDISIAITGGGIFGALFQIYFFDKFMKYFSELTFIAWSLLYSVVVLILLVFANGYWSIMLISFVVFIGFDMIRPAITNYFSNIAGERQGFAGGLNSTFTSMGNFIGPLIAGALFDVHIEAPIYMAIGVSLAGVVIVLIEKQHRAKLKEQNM
# [19] = biological target: T1, Quinolone resistance protein NorA (Staphylococcus aureus); experiment: Inhibition of NorA efflux pump in Staphylococcus aureus 1199B overexpressing NorA efflux pump assessed as reduction in ciprofloxacin MIC at […] by resazurin based assay (Rvb= 6.25 ug/ml)
# Staphylococcus aureus [20] = experiment: Synergistic antimicrobial activity against Staphylococcus aureus 1199B overexpressing NorA efflux pump assessed as reduction in norfloxacin MIC incubated for 24 hrs by MTT colorimetric assay (Rvb= 128 mg/ml); type: functional
# Staphylococcus aureus [21] = experiment: Synergistic antimicrobial activity against Staphylococcus aureus 1199B overexpressing NorA efflux pump assessed as fractional inhibitory concentration index incubated for 24 hrs by checkerboard method; type: functional
# [22] = system: Staphylococcus haemolyticus; experiment: Antibacterial activity against Staphylococcus haemolyticus assessed as bacterial growth inhibition by microdilution assay; type: functional
# [23] = system: Staphylococcus haemolyticus; experiment: Antibacterial activity against Staphylococcus haemolyticus grown in blood assessed as bacterial growth inhibition by microdilution assay; type: functional
# [24] = biological target: UDP-N-acetylmuramoyl-L-alanyl-D-glutamate--2,6-diaminopimelate ligase (Mycobacterium tuberculosis (strain ATCC 25618 / H37Rv), UniProt P9WJL3); experiment: Inhibition of MurE ligase activity in Mycobacterium tuberculosis assessed as release of inorganic phosphate by hydrolysis of ATP using UDP-MurNAc-l-Ala-d-Glu as substrate in presence of ATP incubated for 30 mins by absorbance assay
# MCF7 = experiment: Cytotoxicity against human MCF7 cells assessed as reduction in cell viability by sulforhodamine B assay; type: functional, cell-based
# A549 = experiment: Cytotoxicity against human A549 cells assessed as reduction in cell viability by sulforhodamine B assay; type: functional, cell-based
# WI-38 = experiment: Cytotoxicity against human WI-38 cells assessed as reduction in cell viability by sulforhodamine B assay; type: functional, cell-based
# Staphylococcus aureus [25] = experiment: Antibacterial activity against Staphylococcus aureus 1199B overexpressing NorA efflux pump assessed as bacterial growth inhibition incubated for 18 hrs by broth dilution method; type: functional
# Staphylococcus aureus [26] = experiment: Antibacterial activity against Staphylococcus aureus K1758 with NorA knockout assessed as bacterial growth inhibition incubated for 18 hrs by broth dilution method; type: functional
# [27] = biological target: T1, Quinolone resistance protein NorA (Staphylococcus aureus); experiment: Inhibition of NorA efflux pump in Staphylococcus aureus 1199B overexpressing NorA efflux pump assessed as decrease in ciprofloxacin MIC at 1/4 times MIC and measured for 45 mins in presence of ciprofloxacin by fluorimetric analysis (Rvb=8 ug/ml)
# [28] = biological target: T1, Quinolone resistance protein NorA (Staphylococcus aureus); experiment: Inhibition of NorA efflux pump in Staphylococcus aureus 1199B overexpressing NorA efflux pump assessed as decrease in norfloxacin MIC at 1/4 times MIC and measured for 45 mins in presence of norfloxacin by fluorimetric analysis (Rvb=32 ug/ml)
# Staphylococcus aureus [29] = experiment: Synergistic antibacterial activity against Staphylococcus aureus 1199B overexpressing NorA efflux pump assessed as fractional inhibitory concentration index in presence of norfloxacin incubated for 18 hrs by checkerboard assay; type: functional
# Staphylococcus aureus [30] = experiment: Synergistic antibacterial activity against Staphylococcus aureus 1199B overexpressing NorA efflux pump assessed as fractional inhibitory concentration index in presence of ciprofloxacin incubated for 18 hrs by checkerboard assay; type: functional
# Staphylococcus aureus [31] = experiment: Synergistic antimicrobial activity against Staphylococcus aureus 1199B overexpressing NorA efflux pump assessed as norfloxacin MIC incubated for 24 hrs by broth dilution method; type: functional
smiles,measurement,setting,value
CC(=O)c1c(-c2ccc(F)cc2)cn(-c2ccc(C)cc2)c1C,IC50,LS180,> 100 µM
same,IC50,[1],11.2 µM
O=C(OC[C@H]1O[C@@H](OC(=O)c2cc(O)c(O)c(OC(=O)c3cc(O)c(O)c(O)c3)c2)[C@H](OC(=O)c2cc(O)c(O)c(OC(=O)c3cc(O)c(O)c(O)c3)c2)[C@@H](OC(=O)c2cc(O)c(O)c(OC(=O)c3cc(O)c(O)c(O)c3)c2)[C@@H]1OC(=O)c1cc(O)c(O)c(OC(=O)c2cc(O)c(O)c(O)c2)c1)c1cc(O)c(O)c(OC(=O)c2cc(O)c(O)c(O)c2)c1 [TANNIC ACID],MIC,Staphylococcus aureus [2],≥ 1020 µg/mL
same,MIC,Staphylococcus aureus [3],≥ 1020 µg/mL
Nc1ccccc1-c1cc2ccccc2[nH]1,MIC,Staphylococcus aureus [4],128 µg/mL
same,MIC,Staphylococcus aureus [5],64 µg/mL
same,fractional inhibitory concentration index (FICI),Staphylococcus aureus [6],>=0.5
same,fractional inhibitory concentration index (FICI),Staphylococcus aureus [7],>=0.5
same,fractional inhibitory concentration index (FICI),Staphylococcus aureus [8],>=0.5
same,fractional inhibitory concentration index (FICI),Staphylococcus aureus [9],>=0.5
CC1=CC(=O)c2ccccc2C1=O [MENADIONE],MIC,Staphylococcus aureus [10],64 µg/mL
same,MIC,Staphylococcus aureus [11],64 µg/mL
same,MIC,Staphylococcus aureus [12],64 µg/mL
same,MIC,Staphylococcus aureus [13],64 µg/mL
COc1cc2c(cc1O)CC[n+]1cc3c(OC)c(OC)ccc3cc1-2 [JATRORRHIZINE],MIC,Staphylococcus aureus [14],16 µg/mL
same,fractional inhibitory concentration index (FICI),Staphylococcus aureus [15],0.375
C[C@@H]1O[C@@H](Oc2c(-c3ccc(O)cc3)oc3cc(O)cc(O)c3c2=O)[C@H](OC(=O)/C=C/c2ccc(O)cc2)[C@H](O)[C@H]1OC(=O)/C=C/c1ccc(O)cc1,MIC,Staphylococcus aureus [16],35 µM
same,IC50,[17],2000 nM
same,inhibition,[18],40%
same,MIC,[19],0.78 µg/mL
C/C=C/C1=CC2C(=CC1=O)O[C@H](c1ccc(OC)c(OC)c1)[C@H]2C (stereo not given in full),MIC,Staphylococcus aureus [20],32 mg/mL
same,fractional inhibitory concentration index (FICI),Staphylococcus aureus [21],0.25
CC[C@H](C)C(=O)c1c(O)cc(O)cc1OC/C=C(\C)CCC=C(C)C [OLYMPICIN A],MIC,[22],≥ 16 µg/mL
same,MIC,[23],> 32 µg/mL
same,IC50,[24],75 µM
same,IC50,MCF7,12.5 µM
same,IC50,A549,10.5 µM
same,IC50,WI-38,8.9 µM
COc1cc(/C=C/C(=O)N/N=C/c2ccc[nH]2)cc(OC)c1OC,MIC,Staphylococcus aureus [25],64 µg/mL
same,MIC,Staphylococcus aureus [26],64 µg/mL
same,MIC,[27],0.5 µg/mL
same,MIC,[28],1 µg/mL
same,fractional inhibitory concentration index (FICI),Staphylococcus aureus [29],0.56
same,fractional inhibitory concentration index (FICI),Staphylococcus aureus [30],0.56
COC[C@@H](Cc1ccc(OC)c(OC)c1)[C@@H](COC)Cc1ccc(OC)c(OC)c1,MIC,Staphylococcus aureus [31],12.7 µg/mL
